Measurements: patent publication US20110190137A1, “METHOD TO INHIBIT ETHYLENE RESPONSES IN PLANTS” (priority 2003, published 2011)

How the values were obtained:
[1] = system: ethylene-induced epinasty in Patio variety tomato plants; experiment: Tomato epinasty test, volatile gas treatment; type: in vivo; conditions: for Gas @ 10 ppm: visual rating of protection against ethylene-induced epinasty: gas 10 ppm v/v, 10 ppm ethylene, scale 0 to 10 (10 = complete protection); for Gas @ 1000 ppm: visual rating of protection against ethylene-induced epinasty: gas 1000 ppm v/v, 10 ppm ethylene after 4 h, scored 16 h later, scale 0 (no protection) to 10 (complete protection); for Gas, tested at 850 ppm: rating of protection against epinasty: gas 850 ppm (footnote b or in cell)
Method: (§1) Objective: The test procedure is designed to determine the ability of an experimental compound to block the epinastic growth response induced by ethylene in tomato plants when the experimental compound is administered either as a volatile gas or as a component of a spray solution.
(§2) Treatment chambers are of an appropriate size for the test plants and are airtight. Each is fitted with a reusable septum to be used for injection of ethylene. Test plants are Patio variety tomato seedlings planted two plants per three inch square plastic pot.
Volatile gas treatment entails placing two pots of Patio var. tomatoes into a polystyrene 4.8 L volume treatment chamber along with one-half (upper or lower section) of a 50×9 mm plastic Petri dish containing a Gelman filter pad. The appropriate amount of experimental compound, dissolved in 1.0 ml acetone, is pipetted onto the filter pad and the chamber immediately sealed. Four hours later ethylene gas equal to 10 ppm v/v final concentration is injected into the sealed chamber. Sixteen hours later the chambers are opened in an exhaust hood, allowed to air and the plants scored visually for the degree of protection against ethylene-induced epinasty conferred by the experimental compound when compared to ethylene treated and untreated controls on a scale of 0 to 10. A rating of 10 means complete protection. A rating of 0 means no protection from the effects of ethylene. Gas treatment concentrations are volume/volume.

[2] = system: ethylene-induced epinasty in Patio variety tomato plants; experiment: Tomato epinasty test, spray application treatment; type: in vivo; conditions: spray 10 ppm in 10% acetone/90% water, 0.05% Silwett L-77; 10 ppm ethylene; scale 0 to 10 (10 = complete protection)
Method: as §1, §2
Spray application treatment entails using a DeVilbiss atomizer to completely cover all foliage and stems of two pots of Patio var. tomato plants with the appropriate amount of experimental compound dissolved in 10% acetone/90% water with 0.05% Silwett L-77 surfactant. Plants are air-dried in a drying hood for four hours then transferred to a 4.8 L polystyrene chamber which is sealed.
Ethylene gas equal to 10 ppm v/v final concentration is injected into the sealed chamber. Sixteen hours later the chambers are opened in an exhaust hood, allowed to air and the plants scored visually for the degree of protection against ethylene-induced epinasty conferred by the experimental compound when compared to ethylene treated and untreated controls on a scale of 0 to 10. A rating of 10 means complete protection. A rating of 0 means no protection from the effects of ethylene.

Molecule	Gas @ 10 ppm: visual rating of protection against ethylene-induced epinasty [1]	Spray @10 ppm: visual rating of protection against ethylene-induced epinasty [2]	Gas @ 1000 ppm: visual rating of protection against ethylene-induced epinasty [1]	Gas, tested at 600 ppm: rating of protection against epinasty ([1]; gas 600 ppm (footnote a), scale 0 to 10)	Gas, tested at 850 ppm: rating of protection against epinasty ([1]; scale 0 to 10)	Gas @ 500 ppm: rating of protection against epinasty ([1]; scale 0 to 10)
1-(1-Methyl-2-pyrrolecarbonyloxypropyl)-cyclopropene [Compound 59]	3	4				
1-((2-Carboxy-N-morpholino)ethyl)-cyclopropene [Compound 15]	10	0				
Clc1ccc(CC2=CC2)cc1 [Compound 1, 1-Chloro-4-cycloprop-1-enylmethyl-benzene]	10	10				
C1=C(Cc2cccs2)C1 [Compound 2, 1-(2-Thienyl)methyl-cyclopropene]	10	7				
C1=C(CCCC2OCCCO2)C1 [Compound 3, 2-(3-Cycloprop-1-enyl-propyl)-[1,3]dioxane]	8	0				
C[Si](C)(CCCCCCC1=CC1)c1ccccc1 [Compound 4, 1-(6-(Phenyldimethylsilyl)-hexyl)-cyclopropene]	4	10				
CC(C)(C1=CC1)c1ccccc1 [Compound 5, 1-(α,α-dimethylbenzyl)-cyclopropene]	5	2				
CC1(c2ccccc2)C=C1 [Compound 6, 3-Methyl-3-phenylcyclopropene]	2.5	1	7			
CC1(COc2ccccc2)C=C1 [Compound 7, 3-Methyl-3-Phenoxymethylcycloprop-2-ene]	4	2	10			
CC1=C(Cc2ccccc2)C1 [Compound 8, 1-methyl-2-benzylcyclopropene]	0	0	10			
Clc1ccc(SCCC2=CC2)cc1 [Compound 9, 1-(2-(4-Chlorophenylthio)ethyl)cyclopropene]	10	10				
O=S(=O)(OCCC1=CC1)c1ccccc1 [Compound 10, 2-(2-Benzenesulfonyloxyethyl)-cyclopropene]	10	10				
CCC1=C(n2cc(Br)cn2)C1 [Compound 11, 2-(1-(4-Bromopyrazole))-1-ethylcyclopropene]	2	0		8^a		
C1=C(CCCCCCCn2ccnc2)C1 [Compound 12, 7-(1-Imidazole)-1-heptylcyclopropene]	5.5	3.5			10^b	
C1=C(CCCCCCCN(c2ccccc2)c2ccccc2)C1 [Compound 13, 7-(diphenylamino)-1-heptylcyclopropene]	0	10				
COc1ccc(OCC2(C)C=C2)cc1 [Compound 16]	3.75	4.5				10^c^
C1=C(Cc2ccccc2)C1 [Compound 17]	9	2				
C1=C(CCc2ccccc2)C1 [Compound 18]	10	6				
CC1(CCc2ccccc2)C=C1 [Compound 19]	2	2	7.5			
CC1(Cc2ccccc2)C=C1 [Compound 20]	0	0	7			

Molecule	Gas @ 10 ppm: visual rating of protection against ethylene-induced epinasty [1]	Spray @10 ppm: visual rating of protection against ethylene-induced epinasty [2]	Gas @ 1000 ppm: visual rating of protection against ethylene-induced epinasty [1]	Gas, tested at 600 ppm: rating of protection against epinasty ([1]; gas 600 ppm (footnote a), scale 0 to 10)	Gas, tested at 850 ppm: rating of protection against epinasty ([1]; scale 0 to 10)	Gas @ 500 ppm: rating of protection against epinasty ([1]; scale 0 to 10)
C1=C(CCC2CCCCC2)C1 [Compound 21]	10	10				
C1=C(CC2CCCCCC2)C1 [Compound 22]	9	10				
C1=C(CC2CCCCC2)C1 [Compound 23]	10	10				
Cc1ccc(CC2=CC2)cc1 [Compound 24]	10	10				
C1=C(CCCc2ccccc2)C1 [Compound 25]	10	10				
COc1ccccc1CC1=CC1 [Compound 26]	10	5				
C1=C(CCCCc2ccccc2)C1 [Compound 27]	10	10				
Clc1ccc(CCC2=CC2)cc1 [Compound 28]	9.5	8				
Cc1cccc(CC2=CC2)c1 [Compound 29]	10	10				
Cc1cc(C)c(CC2=CC2)c(C)c1 [Compound 30]	3	0	8			
C1=C(CC2CCCC2)C1 [Compound 31]	9	7.5				
C1=C(CCCCCCCn2cccn2)C1 [Compound 32]	3	10	10			
C1=C(CCCC2OCCO2)C1 [Compound 33]	8	0				
C1=C(CCSc2ccccn2)C1 [Compound 35]	10	9				
C(CCCCCCC1=CC1)=NN1CCCCC1 [Compound 36, 1-(7-(N-piperidinoimino-heptyl))-cyclopropene]	5	3				10^c^
CCC1=C(COc2cccc(C(F)(F)F)c2)C1 [Compound 37, 1-(3-trifluoromethylphenoxymethyl)-2-ethylcyclopropene]	0	0	2			
CCCCCCCCC1=C(B2OCO2)C1 [Compound 38, 2-Octyl-1-(2-(2-boro-1,3dioxetane))-cyclopropene]	3	0			10(@850	
COc1cccc(C(O)C2=C(C)C2)c1 (centres unmarked) [Compound 39, 1-Methyl-2-(hydroxy(3-methoxyphenyl)methyl)cyclopropene]	2	0	10			
O=C(OCCC1=CC1)c1ccoc1 [Compound 48]	10					
CC1=C([Si](C)(C)C)C1(C)C [Compound 79, 1-Trimethylsilyl-2,3,3-trimethylcyclopropene]	10					
